Test results as given in patent US9464306B2, “Method for producing L-amino acid” (KANEKA CORPORATION, priority 2008, dated 2016).
Read-outs that look alike come from different tables or passages of the source.

What was measured:
[1] = Dissolved concentration of the L-amino acid in the reaction mixture after completion of the reaction (HPLC); conditions: substrate solution pH 8, 45° C.
Description: (§1) Here, the “dissolved concentration” refers to percentage (%) by weight of an amino acid dissolvable in the reaction mixture after completion of the reaction, and can be measured by the following method. That is, the L-amino acid is added to the reaction mixture after completion of the reaction until the L-amino acid is no longer dissolved. After that, the mixture is centrifuged, and the resulting supernatant is filtered. The amino acid present in the filtrate is quantitatively analyzed by high performance liquid chromatography, and the percentage (%) by weight of the amino acid is calculated.

[2] = pH 8
Description: as §1

[3] = L-amino acid dissolvable in reaction mixture after reaction of the N-succinyl-DL-amino acid with liquid cultures of E. coli HB101 (pNHK) and E. coli HB101 (pNIG)

Compound	dissolved concentration [1, 3]	dissolved concentration ([1]; L-amino acid dissolvable in reaction mixture after reaction with liquid culture of E. coli HB101 (pNIGHK))	dissolved concentration [2]
N[C@@H](Cc1cccc(F)c1)C(=O)O [L-3-fluorophenylalanine]	≤ 0.5 % by weight		
N[C@@H](Cc1ccc(Br)cc1)C(=O)O [L-4-bromophenylalanine]	≤ 0.5 % by weight		
C=CCCCCC[C@H](N)C(=O)O [L-6-heptenylglycine]	≤ 0.5 % by weight	≤ 0.5 % by weight	
N[C@@H](Cc1ccccc1)C(=O)O [L-phenylalanine, reference compound]	4 % by weight		
L-2-indanylglycine			≤ 0.5 % by weight
